These are literature values, as cited in US20110189689A1, “RIBOSWITCHES” (priority 2008, published 2011).

The subject of series [1] is TPP-specific riboswitches in bacteria and plants. To be noted: via interaction with TPP-specific riboswitches in bacteria and plants.
In series [2] the test system is E. col±165 thiM RNA riboswitch. Particulars: non-phosphorylated form of the thiamine analog.
In a further series the test system is S. cerevisiae. To be noted: presumably by binding to enzymes.

With `Cc1ncc(C[n+]2cccc(CCOP(=O)(O)OP(=O)(O)O)c2C)c(N)n1` [PTPP, pyrithiamine pyrophosphate], in series [1], the antibiotic effect result is recorded as “exert an antibiotic effect”.
Take `Cc1ncc(C[n+]2csc(CCO)c2C)c(=O)[nH]1` [oxythiamine]: the “affinity to the thiM RNA riboswitch” value in series [2] is given as “strongly reduced affinity”. In addition, the “growth rate of S. cerevisiae” value in the series on S. cerevisiae is listed as “can reduce the growth rate”.
